A short description of experiment [1]: Inhibition of recombinant Trypanosoma brucei N-terminal His6-tagged AdoMetDC/prozyme hetrodimer expressed in Escherichia coli BL21/DE3 cells at pH 7.2 by RapidFire-MS-based enzyme activity assay.
In experiment [2] the target is T1, S-adenosylmethionine decarboxylase proenzyme (Homo sapiens, UniProt P17707).
T1 sequence (P17707 whole entry): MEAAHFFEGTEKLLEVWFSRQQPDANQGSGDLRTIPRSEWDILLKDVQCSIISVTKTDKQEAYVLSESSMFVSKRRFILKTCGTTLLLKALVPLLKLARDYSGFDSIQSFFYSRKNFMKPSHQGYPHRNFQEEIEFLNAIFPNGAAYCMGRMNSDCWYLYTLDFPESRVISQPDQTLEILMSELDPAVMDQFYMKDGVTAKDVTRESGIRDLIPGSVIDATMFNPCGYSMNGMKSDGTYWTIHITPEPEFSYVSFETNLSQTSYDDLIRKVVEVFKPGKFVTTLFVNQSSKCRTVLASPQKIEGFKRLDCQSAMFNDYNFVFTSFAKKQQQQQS
Briefly: Inhibition of recombinant human N-terminal His6-tagged AdoMetDC expressed in Escherichia coli BL21/DE3 cells at pH 7.2 by RapidFire-MS-based enzyme activity assay.

Experiment [3] addresses T2, S-adenosylmethionine decarboxylase proenzyme (Homo sapiens) (UniProt P17707).
T2 sequence (whole entry): T1 sequence (P17707 whole entry)
The experiment is described as follows: Inhibition of recombinant human N-terminal His6-tagged AdoMetDC expressed in Escherichia coli BL21/DE3 cells at 180 uM at pH 7.2 by RapidFire-MS-based enzyme activity assay.

Structures are written as SMILES. pIC50: −log10 of the molar value.

Usually pIC50 stands for the IC50 on a negative log10 scale, so that one unit is a factor of ten. In the case of `Cc1cc(Nc2cc(Cl)cc(-c3ccc4ccccc4c3)c2)nc(N)n1`, the figures for the pIC50 in experiment [1] and in experiment [2] were 4.24 and under 3.74, respectively.
One may read the inhibition as the change of the read-out against control, counted positive when it falls. Turning to `Cc1cc(Nc2cc(Cl)cc(C(F)(F)F)c2)nc(N)n1`, the pIC50 in experiment [1] is 5.41. For the same compound, the inhibition in experiment [3] is 39%.
Consider `Cc1cc(Nc2cc(Cl)c(N3CCOCC3)c(Cl)c2)nc(N)n1`, for which the pIC50 in experiment [1] and in experiment [2] was under 3.74 throughout.
In the case of `CCCCOc1cc(Br)cc(Nc2cc(C)nc(N)n2)c1`, the values for the pIC50 in experiment [1] and in experiment [2] were 5.35 and under 3.74, respectively.
In the same order, the values of `Cc1ccc(-c2cc(Cl)cc(Nc3cc(C)nc(N)n3)c2)cc1` are 5.34 and under 4.20.
For `Cc1cc(Nc2ccc(-c3cc(Cl)cc(Cl)c3)cc2)nc(N)n1`, the pIC50 in experiment [1] and in experiment [2] was under 3.74 in each case.
Regarding `Cc1cc(Nc2cc(Cl)cc(-c3ccc(Cl)cc3)c2)nc(N)n1`, the pIC50 is 5.77 in experiment [1] and under 4.20 in experiment [2].
In the same order, the values of `Cc1cc(Nc2cc(Cl)c(OC(F)F)c(Cl)c2)nc(N)n1` are under 4.20 and under 4.20.
In the same order, the values of `Cc1cc(C)cc(Nc2cc(C)nc(N)n2)c1` are 3.85 and under 3.74.
Regarding `Nc1cc(Nc2cc(Cl)cc(Cl)c2)ccn1`, the figures for the pIC50 in experiment [1] and in experiment [2] were 4.66 and under 3.74, respectively.
In the same order, the values of `CC(C)c1cc(Nc2cc(Cl)cc(Cl)c2)nc(N)n1` are 4.92 and under 3.74.
The matching figures for `Cc1cc(Nc2cc(Cl)cc(-c3cncnc3)c2)nc(N)n1`: under 3.74 and under 3.74.
In the same order, the values of `Cc1cc(Nc2cc(Cl)c(C)c(Cl)c2)nc(N)n1` are 4.70 and under 4.20.
With `Cc1cc(Nc2cc(Cl)cc(-c3ccc(C(F)(F)F)cc3)c2)nc(N)n1`, the values for the pIC50 in experiment [1] and in experiment [2] were 5.33 and under 4.68, respectively.
In the same order, the values of `Cc1cc(Sc2cc(Cl)cc(Cl)c2)nc(N)n1` are under 3.74 and under 3.74.
`CSc1ccccc1Nc1cc(C)nc(N)n1`: the negative-log IC50 (pIC50) in experiment [1] and in experiment [2] was under 3.74 throughout.
Turning to `Cc1cc(Nc2cc(Cl)cc(-c3cc(C(F)(F)F)cc(C(F)(F)F)c3)c2)nc(N)n1`, the pIC50 is 4.55 in experiment [1] and under 3.74 in experiment [2].
The matching figures for `Cc1cc(Nc2ccccc2)nc(N)n1`: under 3.74 and under 3.74.
In the case of `CCc1ccc(Nc2cc(C)nc(N)n2)cc1`, the pIC50 in experiment [1] and in experiment [2] was under 3.74 each time.
On to `Cc1cc(Nc2cc(-c3ccccc3)cc(-c3ccccc3)c2)nc(N)n1`, for which the pIC50 in experiment [1] and in experiment [2] was under 3.74 in each case.
`Cc1cc(Nc2cc(C(C)(C)C)cc(C(C)(C)C)c2)nc(N)n1`: the pIC50 in experiment [1] and in experiment [2] was under 4.20 each time.
As for `Nc1nc2c(c(Nc3cc(Cl)cc(Cl)c3)n1)CCC2`, the pIC50 was 4.92 in experiment [1] and under 4.68 in experiment [2].
In the same order, the values of `Cc1cc(Nc2cc(Cl)cc(-c3cc4ccccc4s3)c2)nc(N)n1` are 4.39 and under 3.74.
Consider `Cc1cc(Nc2cc(F)cc(Cl)c2)nc(N)n1`, for which the figures for the pIC50 in experiment [1] and in experiment [2] were 4.49 and under 3.74, respectively.
In the same order, the values of `Cc1cc(Nc2cc(Cl)cc(-c3ccc(C#N)cc3)c2)nc(N)n1` are 5.12 and under 5.15.
`Cc1cc(Nc2cc(Cl)cc(-c3ccc(Cl)c(Cl)c3)c2)nc(N)n1`: the pIC50 is 3.99 in experiment [1] and under 3.74 in experiment [2].
As to `COc1cc(Nc2cc(C)nc(N)n2)cc(OC)c1`, in experiment [1], the pIC50 was 4.77. Besides, the inhibition in experiment [3] turned out to be 21%.
As to `CCc1cc(Nc2cc(C)nc(N)n2)cc(-c2ccc(F)cc2)c1`, the pIC50 in experiment [1] is 5.57; in experiment [2] it was under 3.74.
Take `CCOc1cc(Br)cc(Nc2cc(C)nc(N)n2)c1`: in experiment [1], the pIC50 is 5.22. Further, in experiment [3], the inhibition was 36%.
For `Cc1nc(N)nc(Nc2cc(Cl)cc(Cl)c2)c1C`, in experiment [1], the pIC50 was 5.32. Moreover, the inhibition in experiment [3] stood at 25%.
As for `Cc1cc(Nc2ccccc2Br)nc(N)n1`, the pIC50 in experiment [1] and in experiment [2] was under 3.74 each time.
On to `Cc1cc(Nc2ccc(C(C)C)cc2)nc(N)n1`, for which the pIC50 in experiment [1] and in experiment [2] was under 3.74 each time.
Consider `Nc1nc(Nc2cc(Cl)cc(Cl)c2)cc(N2CCOCC2)n1`, for which the pIC50 in experiment [1] and in experiment [2] was under 3.74 in each case.
In the case of `Cc1cc(Nc2ccc(Cl)cc2C)nc(N)n1`, the pIC50 in experiment [1] and in experiment [2] was under 3.74 throughout.
For the compound `Cc1cc(Nc2cc(Cl)cc(C#N)c2)nc(N)n1`, the pIC50 in experiment [1] is 5.41. Further, in experiment [3], the inhibition came to 29%.
As for `Cc1cc(Nc2cc(Cl)cc(-c3cc4ccccc4c4ccccc34)c2)nc(N)n1`, the negative-log IC50 (pIC50) in experiment [1] and in experiment [2] was under 3.74 throughout.
Turning to `CCc1cc(Br)cc(Nc2cc(C)nc(N)n2)c1`, the values for the pIC50 in experiment [1] and in experiment [2] were 5.12 and under 3.74, respectively.
Regarding `Cc1cc(Nc2cc(S(C)(=O)=O)cc(S(C)(=O)=O)c2)nc(N)n1`, the pIC50 in experiment [1] was 5.82. Besides, the inhibition in experiment [3] turned out to be 39%.
Turning to `Cc1cc(Nc2cc(Cl)cc(Cl)c2)cc(N)n1`, the pIC50 in experiment [1] is 4.82; in experiment [2] it was under 3.74.
In the same order, the values of `CNc1nc(C)cc(Nc2cc(Cl)cc(Cl)c2)n1` are under 4.20 and under 4.20.
On to `Cc1cc(Nc2cc(Cl)cc(-c3ccc4nonc4c3)c2)nc(N)n1`, for which the pIC50 in experiment [1] was 4.57; in experiment [2], under 3.74.
In the same order, the values of `Cc1cc(Nc2cc(Cl)cc(-c3ccc(O)cc3)c2)nc(N)n1` are 3.84 and under 3.74.
`Cc1cc(Nc2cc(Cl)cc(-c3ccc4c(c3)OCO4)c2)nc(N)n1`: the pIC50 in experiment [1] was 5.21; in experiment [2], under 4.68.
The matching figures for `Cc1cc(Nc2cc(Cl)c(N3CCCCC3)c(Cl)c2)nc(N)n1`: under 3.74 and under 3.74.
The matching figures for `Cc1cc(Nc2cc(Br)cc(S(F)(F)(F)(F)F)c2)nc(N)n1`: 5.06 and under 3.74.
In the same order, the values of `Cc1cc(Nc2cc(C(=O)Nc3cc(Cl)cc(Cl)c3)cc(C(=O)Nc3cc(Cl)cc(Cl)c3)c2)nc(N)n1` are under 3.74 and under 3.74.
`Cc1cc(Nc2cc(Cl)cc(-c3ccc(-c4ccccc4)cc3)c2)nc(N)n1`: the values for the pIC50 in experiment [1] and in experiment [2] were 3.78 and under 3.74, respectively.
The matching figures for `Cc1cc(Nc2cc(Cl)cc(-c3ccc(F)cc3)c2)nc(N)n1`: 5.96 and under 4.68.
The matching figures for `Cc1cc(Nc2cc(Cl)cc(-c3cccc(Cl)c3)c2)nc(N)n1`: 4.09 and under 3.74.
For `Cc1cc(Nc2cc(Cl)c(Cl)c(Cl)c2)nc(N)n1`, the pIC50 in experiment [1] was 4.96; in experiment [2] it was under 4.20.
The matching figures for `Cc1cc(Nc2cc(Cl)cc(-c3ccc(Cl)c(C(F)(F)F)c3)c2)nc(N)n1`: 4.28 and under 3.74.
The matching figures for `Cc1cc(Nc2cc(Br)cc(OCC(C)C)c2)nc(N)n1`: 4.96 and under 3.74.
Turning to `Cc1cc(Nc2cc(Cl)cc(Cl)c2)nc(N(C)C)n1`, the pIC50 in experiment [1] and in experiment [2] was under 3.74 in each case.
As to `Cc1cc(Nc2cc(C(=O)O)cc(C(=O)O)c2)nc(N)n1`, the pIC50 in experiment [1] and in experiment [2] was under 3.74 throughout.
Consider `Cc1cc(Nc2cc(Cl)cc(-c3ccsc3)c2)nc(N)n1`, for which the pIC50 in experiment [1] was 4.59. Besides, in experiment [3], the inhibition was 30%.
Consider `Cc1cc(Nc2cc(Cl)c(F)c(Cl)c2F)nc(N)n1`, for which the negative logarithm of the IC50 (pIC50) was 5.66 in experiment [1] and under 4.20 in experiment [2].
Turning to `COc1ccc(-c2cc(Cl)cc(Nc3cc(C)nc(N)n3)c2)cc1`, the pIC50 in experiment [1] was 5.64; in experiment [2], under 3.74.
In the same order, the values of `Cc1cc(Nc2cc(C(F)(F)F)cc(C(F)(F)F)c2)nc(N)n1` are 4.96 and under 3.74.
As to `Nc1nc(Nc2cc(Cl)cc(Cl)c2)cc(C(F)(F)F)n1`, the pIC50 in experiment [1] and in experiment [2] was under 3.74 throughout.
With `Cc1cc(Nc2cc(Cl)c(N(C)C)c(Cl)c2)nc(N)n1`, the pIC50 in experiment [1] and in experiment [2] was under 3.74 in each case.
As to `Cc1cc(Nc2cc(Cl)cc(-c3cnn(C)c3)c2)nc(N)n1`, the pIC50 was 3.79 in experiment [1] and under 3.74 in experiment [2].
The matching figures for `Cc1cc(NCc2cc(Cl)cc(Cl)c2)nc(N)n1`: 3.86 and under 3.74.
In the same order, the values of `Cc1cc(Nc2ccc(C(F)(F)F)cc2)nc(N)n1` are under 3.74 and under 3.74.
In the same order, the values of `Cc1cc(Nc2cc(Cl)cc(-c3ccccc3Cl)c2)nc(N)n1` are 4.59 and under 3.74.
As for `Nc1ccnc(Nc2cc(Cl)cc(Cl)c2)c1`, the pIC50 in experiment [1] and in experiment [2] was under 3.74 each time.
`Cc1cc(Nc2cccc(F)c2)nc(N)n1`: the pIC50 in experiment [1] and in experiment [2] was under 3.74 in each case.
As to `Cc1cc(Nc2ccccc2C)nc(N)n1`, the pIC50 in experiment [1] and in experiment [2] was under 3.74 each time.
Turning to `Cc1cc(N(C)c2cc(Cl)cc(Cl)c2)nc(N)n1`, the pIC50 in experiment [1] is 4.09; in experiment [2], under 3.74.
The matching figures for `Cc1cc(Nc2cc(Cl)cc(S(F)(F)(F)(F)F)c2)nc(N)n1`: 4.80 and under 3.74.
The matching figures for `Nc1cccc(Nc2cc(Cl)cc(Cl)c2)n1`: under 3.74 and under 3.74.
In the same order, the values of `Cc1cc(Nc2cc(F)cc(F)c2)nc(N)n1` are 3.74 and under 3.74.
